Measured values published in US12702674B2, “Methods for producing chemoembolic agents for the delivery of anti-cancer agents” (University of Utah Research Foundation, priority 2017, dated 2026).
Where a name gives a salt, the structure may show the parent alone.

Key:
Hep3B = assay: WST-8 cell viability assay, single agent in vitro toxicity; type: cell-based; settings: Homo sapiens, 72 hours of incubation, media containing 0.5% DMSO, read-out: IC50 Values of Each Drug per HCC Cell Line
Method: (§1) Growth inhibition by the base drugs used in this study was evaluated on three different hepatoma cell lines—two human HCC lines and one rat cell line—using a 2-(2-methoxy-4-nitrophenyl)-3-(4-nitrophenyl)-5-(2,4-disulfophenyl)-2H-tetrazolium monosodium salt (WST-8) cell viability assay (Dojindo Molecular Technologies, Inc., Rockville, MD). Human cell lines Hep3B and HepG2 were obtained from ATCC (Manassas, VA) and cultured in EMEM cell culture medium (ATCC) supplemented with 10% fetal bovine serum (FBS). The rat hepatoma line McA-RH7777 was generously donated by the Larson Lab (Northwestern University, IL). This line was cultured in DMEM cell culture medium (ATCC) supplemented with 10% FBS. All lines were grown at 37° C. in a humidified atmosphere of 5% CO2.
(§2) To prevent precipitation of the drugs, media containing 0.5% DMSO was used throughout all the studies. Doubling times of the cell lines were similar; therefore, cells were plated at the same density of 7,000 cells per well in 96-well plates for 24 hours. Media was removed, cells were washed with PBS, and treatment was applied. Drug concentrations were varied to include data points ranging from non-toxic to highly toxic. Following 72 hours of incubation, the media was removed and cell viability was quantified using the WST-8 assay with a SpectraMax M2 spectrophotometer (Molecular Devices, Sunnyvale, CA).
(§3) Each experiment was performed with N=6, assessing viability at 10 different drug concentrations. Relative cell viability was calculated by normalizing against the UV absorbance of untreated cells. GraphPad Prism was used to plot relative cell viability as a function of log drug concentration with a non-linear least-squares regression analysis and calculation of IC50 values.

human HCC HepG2 cells = assay: as above; type: cell-based; settings: 72 hours of incubation, media containing 0.5% DMSO, read-out: IC50 Values of Each Drug per HCC Cell Line
Method: as §1, §2, §3

[1] = tested on: rat hepatoma line McA-RH7777; assay: as above; type: cell-based; settings: 72 hours of incubation, media containing 0.5% DMSO, read-out: IC50 Values of Each Drug per HCC Cell Line
Method: as §1, §2, §3

[2] = In vitro drug release from 9% SELP-815K gels (RP-HPLC); type: physicochemical; settings: for cumulative release of sorafenib: 9% SELP-815K, 14-day release
Method: (§4) SELP-815K formulations were prepared at 12% w/w in 1× phosphate buffered saline (PBS). Powder drugs were milled for 12 hours to reduce crystal size and variability using a custom built ball mill. Milled samples were inspected microscopically to verify homogeneity. Two methods of drug incorporation were investigated. […] Drug loading concentration was chosen based on manufacturer specified loading of doxorubicin in DEBs. The same loading was used for sorafenib.
(§5) For dual drugs, drug loading was 12.5 mg/mL for each drug, for a total drug loading of 25 mg/mL. Samples were chilled on ice until tested. Samples incorporating powder drug in 12% w/w SELP-815K were prepared without dilution; however, the volume addition of the powdered drug was not considered in the calculation of the SELP concentration. Samples with powdered drug were tested at 25 and 50 mg/mL for single drug loaded samples and 25 mg/mL per drug for dual drug loaded samples.
(§6) The drug loaded SELP solutions were drawn into 0.5 cd insulin syringes and incubated overnight at 37° C. followed by cutting into gel disks as previously described. Weights were recorded. Individual gels were placed into 8 dram glass vials, to which 25 mL of release media consisting of 1×PBS, 1% SDS was added. The elution volume was chosen to ensure sink conditions and complete dissolution of both drugs, if all drug eluted immediately.
At predetermined time points of 1 hour, 3 hours, 6 hours, 12 hours, 1 day, 3 days, 5 days, 7 days, 10 days, 14 days, and 20 and 30 days for extended-release studies, a sample volume was removed for analysis and replaced with fresh media. Vials were sealed and maintained in a shaking incubator at 37° C., 120 rpm. The 9% SELP-815K gels underwent release testing for 14 days. The 12% SELP-815K gels were tested for 30 days.
(§7) Drug content in the release media was detected by reverse phase high performance liquid chromatography (RP-HPLC; Agilent Technologies, Santa Clara, CA) using a RPC18 X-Terra column (4.6×250 mm, 5 µm particle size; Waters, Milford, MA) and a guard column of the same packing material. The elution gradient at time zero began with mobile phase of 40% 20 mM ammonium acetate and 60% acetonitrile (CAN), which increased to 72% CAN over 9 minutes at a flow rate of 1 mL/min. Percent cumulative release was calculated using the experimental drug loading per disk based on the pre-release weight.

[3] = In vitro drug release from 12% SELP-815K gels (RP-HPLC); type: physicochemical; settings: day 30
Method: as §5
as §6, with “immediately. […]” for “immediately.”
as §7, with “The elution gradient at time zero began with mobile phase of 40% 20 mM ammonium acetate and 60% acetonitrile (CAN), which increased to 72% CAN over 9 minutes at a flow rate of 1 mL/min.” left out

[4] = Rheological characterization of drug loaded 9% SELP-815K; type: physicochemical; settings: SELP solution with dox HCl, as drug powder or DMSO solution, 25 mg/mL
Method: as §4, §5
An AR 550 stress-controlled rheometer from TA Instruments (New Castle, DE) was used for rheological testing. A cone-and-plate configuration equipped with a stainless steel 20 mm diameter, 4 degree geometry was used. An oscillation procedure with a temperature ramp from 18° C. to 37° C. […]

SMILES	IC50 (Hep3B) [nM]	IC50 (human HCC HepG2 cells) [nM]	IC50 [1] [nM]	loaded doxorubicin released in the first day ([2]; 9% SELP-815K gels, base form, in DMSO or powder, first day)	loaded doxorubicin released by day 14 ([2]; 9% SELP-815K gels, base form, day 14)	total drug content of doxorubicin released (cumulative release) ([3]; 25 mg/mL single drug loaded and dual drug loaded gels) [%]	cumulative release of doxorubicin ([3]; 50 mg/mL single drug loaded gel) [%]	cumulative release of sorafenib ([2]; DMSO dissolved drug, dual drug loaded gels (12.5 mg/mL each drug)) [%]	cumulative release of sorafenib ([2]; DMSO dissolved drug, single drug loaded gel (25 mg/mL))	cumulative release of sorafenib ([2]; powder drug, dual drug loaded gel (12.5 mg/mL each drug)) [%]	cumulative release of sorafenib ([2]; powder drug, single drug loaded gel (25 mg/mL)) [%]	viscosity relative to the SELP control with no drug [4]
COc1cccc2c1C(=O)c1c(O)c3c(c(O)c1C2=O)C[C@@](O)(C(=O)CO)C[C@@H]3O[C@H]1C[C@H](N)[C@H](O)[C@H](C)O1 [Doxorubicin]	290 ± 40	620 ± 410	480 ± 320	More than 50%	nearly all of the loaded drug released	30	15					
CNC(=O)c1cc(Oc2ccc(NC(=O)Nc3ccc(Cl)c(C(F)(F)F)c3)cc2)ccn1 [Sorafenib]	3470 ± 200	1720 ± 700	6880 ± 830					95	less than 60%	22	8.7	
COc1cccc2c1C(=O)c1c(O)c3c(c(O)c1C2=O)C[C@@](O)(C(=O)CO)C[C@@H]3O[C@H]1C[C@H](N)[C@H](O)[C@H](C)O1 [dox HCl, doxorubicin hydrochloride]												more than 2 fold
